Assay results from patent US20260103468A1, “FUSED RING COMPOUND, PHARMACEUTICAL COMPOSITION, AND USE THEREOF” (Hainan Simcere Zaiming Pharmaceutical Co., Ltd., priority 2022, published 2026).

Tests used:
[1] = biological target: T1, GST-labeled human Cereblon WT (Homo sapiens, UniProt Q96SW2); experiment: Cereblon binding experiment (HTRF Human Cereblon Binding Kit); conditions: HTRF competition with XL665-labeled lenalidomide tracer; incubated at room temperature for 3 hours; read-out: IC50 (binding ability to Cereblon)
T1 construct: purchased
Description: The detection kit (HTRF Human Cereblon Binding Kits) used in the experiment was a detection method for quantitative measurement of Cereblon WT ligand using HTRF® technology. The detection principle was based on HTRF technology. The specifically labeled GST antibody (Eurum Cryptate, donor) bound to the GST-labeled human Cereblon WT ligand and the XL665-labeled lenalidomide tracer (acceptor) at the same time. The donor was excited with a light source to initiate fluorescence resonance energy transfer (FRET) to the acceptor. The acceptor emitted fluorescence at a specific wavelength of 665 nm. After adding the compound, the compound competed with XL665-labeled lenalidomide to prevent FRET. The FRET signal ratio was inversely proportional to the compound concentration.
Compounds of the present disclosure were dissolved in DMSO, with a mother liquor storage concentration of 10 mM. […] The HTRF signal in each well was measured using an Envision plate reader. […]
The ratio of acceptor and donor emission signals was calculated for each well: […]
Data analysis was performed by GraphPad Prism 9. The concentration-effect curves were obtained using a nonlinear four-parameter fitting, and IC50 of compounds was calculated: […]
The binding ability of the compounds of the present disclosure to Cereblon was determined by the above assay, and the measured IC50 values were shown in Table 1.

[2] = biological target: T2, GSPT1 protein (Homo sapiens, UniProt P15170+Q96SW2); experiment: Degradation activity experiment on intracellular GSPT1 protein in CAL51 cells; type: cell-based; conditions: anti-GSPT1/anti-α-Tubulin antibody staining in 384-well plate; for DC50: 6 hours; for Dmax: CAL-51, 6 hours, read-out: Maximum degradation rate (%) (GSPT1 protein degradation activity)
T2 construct: endogenous in cells; host or cells: CAL51
Procedure: The medium of CAL51 (CBP60360, Kebai) was removed, and PBS was added for rinsing once, and then digested with trypsin (Trypsin-EDTA (0.25%)) for 5 minutes. After digestion, 10 mL of complete medium (DMEM containing 10% FBS[…]) was added to neutralize trypsin, and the cells were then pipetted, collected, centrifuged at 300 g for 5 min. The cell density was adjusted to 266,667 cells/mL. 30 μL of the cell suspension was added to a 384 well plate. The plate was centrifuged at 300 g for 1 min and then incubated in a cell incubator overnight.
Compounds of the present disclosure were dissolved in DMSO, with a mother liquor storage concentration of 10 mM. The gradient dilution of compound mother liquor was carried out through the dose-response program of the compound dilution and loading instrument. The total experimental volume of the dilution program was 30 μL, with the initial concentration of 100 μM for the tested compound. A4-fold dilution was performed, resulting in 10 concentration points. The positive control compound was CC-885 in Test Example 2, the negative control was DMSO, and the DMSO content of all wells was 0.3%. After the procedure, then the plate was centrifuged and incubated in a carbon dioxide incubator for 6 hours.
After 6 hours of administration, the supernatant was discarded, the cells were washed with 50 μL of cold PBS, and then the cells were fixed with 50 μL/well of 4% paraformaldehyde/universal tissue fixation solution, and incubated at room temperature for 1 hour. The paraformaldehyde was discarded and 50 μL/well PBS-0.1% Triton X-100 was added to permeate cells for 30 minutes. PBS-Triton was discarded, 50 μL/well of blocking buffer (927-70001, Li-COR) was added, and incubated at room temperature for 1 hour. The blocking buffer was removed, and 30 μL/well of rabbit anti-GSPT1 (1: 300) (HPA052488, Sigma), mouse anti-α-Tubulin (1: 2000) (T6074, Sigma) primary antibody mixed antibody was added, and incubated at 4° C. overnight. The well was washed with 50 μL/well PBST (PBS containing 0.1% Tween-20) and soaked for 10 minutes per round for 4 times. 30 μL/well of goat anti-mouse 680RD (P/N 925-68070, Li-COR) and goat anti-rabbit 800CW (P/N 925-32211, Li-COR) secondary antibody mixture (1: 5000) was added and incubated at room temperature away from light for 1-1.5 hours. The well was washed with 50 μL/well PBST and soaked for 10 min per round for 4 times. The centrifuge plate was turned upside down, covered with toilet paper, then centrifuged at 1000 rpm/min for 1 minute, and the bottom of the plate was dried. A 384-well plate was scanned with an Azure WB imaging system (Sapphire) and the data was read.
The GSPT1 protein degradation activity of the compounds of the present disclosure in CAL51 cells was measured by the above assay, and the protein degradation rate of each sample well was calculated based on the raw data.
[formula] • Sample reading: refers to the signal value of the experimental group; • DSMO reference mean reading; refers to the mean signal value of the DSMO control group. No test compound was added to the […], and other operations were consistent with those of the experimental group.
Data analysis was performed by GraphPad Prism 9. The concentration-effect curves were obtained using a nonlinear four-parameter fitting, and DC50 of compounds was calculated:
[formula] • Wherein: • X: Log of the compound concentration. • Y: degradation rate (%); • Bottom is the minimum percent degradation: • Top is the maximum percent degradation: • HillSlope is the slope coefficient of the curve.

[3] = test system: CAL51 cells; experiment: Anti-proliferative activity experiment on CAL51 cells (CellTiter-Glo 3D); type: cell-based; conditions: Homo sapiens, CAL-51, 72 h, CAL51 cell spheroid, incubated 3 days
Procedure: The medium of target cells CAL51 (CBP60360, Kebai) was removed, and PBS was added for rinsing once, and then digested with trypsin (Trypsin-EDTA (0.25%)) for 5 minutes. After digestion, 10 mL of complete medium (DMEM containing 10% FBS) was added to neutralize trypsin, and the cells were pipetted and collected, then centrifuged at 300 g for 5 min, counted. The cell density was adjusted to 40,000 cells/mL. 90 μL cell suspension was added to a 96-well low adsorption plate. 200 μL of PBS was added to the edge wells. The plate was centrifuged at 300 g for 5 minutes to form cell spheroid, which were then incubated in a cell incubator overnights. […]
The cells were removed from the incubator and returned to room temperature for […]. 50 μL of CellTiter-Glo® 3D Cell Viability Assay reagent was added, and the plate was shaked and mixed well for 10 minutes, and then the plate was read with an Envision plate reader.
The anti-proliferative activity of the compound of the present disclosure on CAL51 cells was measured by the above assay, and the cell growth inhibition rate of each sample well was calculated based on the raw data.
[formula] • Sample reading: refers to the signal value of the experimental group; • DMSO reference mean reading: refers to the mean signal value of the DMSO control group. […]

T2 sequence (P15170 whole entry): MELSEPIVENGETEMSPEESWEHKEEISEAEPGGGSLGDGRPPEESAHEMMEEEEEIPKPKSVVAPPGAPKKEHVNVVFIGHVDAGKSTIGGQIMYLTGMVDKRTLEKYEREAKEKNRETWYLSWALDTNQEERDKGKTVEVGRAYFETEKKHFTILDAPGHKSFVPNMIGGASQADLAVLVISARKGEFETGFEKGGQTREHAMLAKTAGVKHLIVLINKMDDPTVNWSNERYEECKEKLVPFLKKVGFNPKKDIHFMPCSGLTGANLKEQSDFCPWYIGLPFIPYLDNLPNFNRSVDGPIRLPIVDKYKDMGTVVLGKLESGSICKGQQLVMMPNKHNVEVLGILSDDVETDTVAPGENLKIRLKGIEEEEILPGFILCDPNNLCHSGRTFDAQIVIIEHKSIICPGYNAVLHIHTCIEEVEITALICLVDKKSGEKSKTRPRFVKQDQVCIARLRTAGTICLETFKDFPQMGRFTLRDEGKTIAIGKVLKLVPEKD
T2 sequence (Q96SW2 whole entry): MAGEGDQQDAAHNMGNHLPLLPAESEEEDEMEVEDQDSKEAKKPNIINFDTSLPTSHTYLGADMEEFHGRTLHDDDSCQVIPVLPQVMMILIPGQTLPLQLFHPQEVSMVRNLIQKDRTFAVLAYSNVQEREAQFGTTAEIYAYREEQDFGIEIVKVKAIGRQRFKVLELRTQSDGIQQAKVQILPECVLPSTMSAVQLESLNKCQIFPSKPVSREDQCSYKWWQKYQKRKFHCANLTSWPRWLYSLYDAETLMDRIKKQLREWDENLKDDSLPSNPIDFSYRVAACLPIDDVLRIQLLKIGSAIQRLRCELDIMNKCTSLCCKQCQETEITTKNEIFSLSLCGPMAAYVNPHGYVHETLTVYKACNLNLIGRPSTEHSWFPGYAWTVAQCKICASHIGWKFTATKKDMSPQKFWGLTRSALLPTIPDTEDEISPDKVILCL
T2 sequence (Q16531 whole entry partner): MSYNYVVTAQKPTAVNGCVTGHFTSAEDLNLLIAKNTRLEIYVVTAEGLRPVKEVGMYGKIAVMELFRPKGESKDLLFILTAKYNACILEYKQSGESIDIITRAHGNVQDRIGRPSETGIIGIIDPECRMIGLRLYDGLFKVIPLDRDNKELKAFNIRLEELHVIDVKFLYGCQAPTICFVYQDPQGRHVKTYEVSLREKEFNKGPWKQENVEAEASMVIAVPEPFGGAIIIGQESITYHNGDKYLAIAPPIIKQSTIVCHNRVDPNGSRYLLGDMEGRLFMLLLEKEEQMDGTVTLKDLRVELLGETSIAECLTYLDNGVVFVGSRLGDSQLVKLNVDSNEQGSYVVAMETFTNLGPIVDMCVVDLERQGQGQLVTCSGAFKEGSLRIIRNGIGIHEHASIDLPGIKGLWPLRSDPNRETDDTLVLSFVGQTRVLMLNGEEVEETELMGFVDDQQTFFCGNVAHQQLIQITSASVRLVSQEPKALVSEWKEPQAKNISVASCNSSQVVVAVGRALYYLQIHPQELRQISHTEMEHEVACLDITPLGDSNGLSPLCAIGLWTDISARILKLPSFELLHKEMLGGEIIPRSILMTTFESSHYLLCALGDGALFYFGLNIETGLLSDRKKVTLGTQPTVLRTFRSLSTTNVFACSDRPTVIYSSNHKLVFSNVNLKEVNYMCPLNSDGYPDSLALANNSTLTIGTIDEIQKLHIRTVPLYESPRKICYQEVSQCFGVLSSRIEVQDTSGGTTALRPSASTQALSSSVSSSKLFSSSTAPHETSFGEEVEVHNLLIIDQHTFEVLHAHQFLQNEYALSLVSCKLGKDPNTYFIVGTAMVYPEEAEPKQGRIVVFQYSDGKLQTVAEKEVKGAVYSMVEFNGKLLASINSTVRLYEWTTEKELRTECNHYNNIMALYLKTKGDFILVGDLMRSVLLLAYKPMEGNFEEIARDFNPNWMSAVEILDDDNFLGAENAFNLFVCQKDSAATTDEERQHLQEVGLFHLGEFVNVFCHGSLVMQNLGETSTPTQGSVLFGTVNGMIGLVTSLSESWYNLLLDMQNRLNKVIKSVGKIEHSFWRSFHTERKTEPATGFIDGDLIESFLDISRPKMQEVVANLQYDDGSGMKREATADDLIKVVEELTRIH
T1 sequence (Q96SW2 whole entry): as the sequence (Q96SW2 whole entry) above

SMILES | IC50 [1] | DC50 [2] | Dmax [2] | IC50 [3]
O=C1CCC(N2Cc3cc4ccccc4n3C2=O)C(=O)N1 (centres unmarked) [Compound 1, 3-(3-oxo-1H-imidazo [1,5-a]indol-2 (3H)-yl) piperidine-2,6-dione] | 1000 to 10000 nM | – | – | –
Cc1ccc(NC(=O)NCc2ccc3c(c2)cc2n3C(=O)N(C3CCC(=O)NC3=O)C2)cc1Cl (centres unmarked) [Compound 2, 1-(3-chloro-4-methylphenyl)-3-((2-(2,6-dioxopiperidin-3-yl)-3-oxo-2,3-dihydro-1H-imidazo [1,5-a]indol-7-yl)methyl) urea] | – | 86.3 nM | 95.4% | –
Cc1ccc(NC(=O)OCc2ccc3c(c2)cc2n3C(=O)N(C3CCC(=O)NC3=O)C2)cc1Cl (centres unmarked) [Compound 3, (2-(2,6-dioxopiperidin-3-yl)-3-oxo-2,3-dihydro-1H-imidazo [1,5-a]indol-7-yl) methyl-(3-chloro-4-methylphenyl) carbamate] | – | 25.4 nM | 98.3% | 39 nM
CNc1cc(C#CC(=O)NCc2ccc3c(c2)cc2n3C(=O)N(C3CCC(=O)NC3=O)C2)ccc1C (centres unmarked) [Compound 4, N-((2-(2,6-dioxopiperidin-3-yl)-3-oxo-2,3-dihydro-1H-imidazo [1,5-a]indol-7-yl)methyl)-3-(4-methyl-3-(methylamino)phenyl) propinamide] | – | 144 nM | 85.3% | –
O=C1CCC(N2Cc3cc4cc(COC(=O)Nc5cc(OC(F)(F)F)ccc5F)ccc4n3C2=O)C(=O)N1 (centres unmarked) [Compound 5, 2-(2,6-dioxopiperidin-3-yl)-3-oxo-2,3-dihydro-1H-imidazo [1,5-a] indol-7-yl) methyl (2-fluoro-5-trifluoromethoxy) phenyl) carbamate] | – | 20 nM | 96.7% | –
CNc1ccc(NC(=O)OCc2ccc3c(c2)cc2n3C(=O)N(C3CCC(=O)NC3=O)C2)cc1Cl (centres unmarked) [Compound 8, (2-(2,6-dioxopiperidin-3-yl)-3-oxo-2,3-dihydro-1H-imidazo [1,5-a]indol-7-yl) methyl-(3-chloro-4-(methylamino)phenyl) carbamate] | – | 13 nM | 94.6% | –

More lines, main results first:

IC50 [1] | DC50 [2] | Dmax [2] | SMILES | IC50 [3]
– | 1460 nM | 69.6% | CNCCOCCc1cc(NC(=O)OCc2ccc3c(c2)cc2n3C(=O)N(C3CCC(=O)NC3=O)C2)ccc1Cl (centres unmarked) [Compound 9, (2-(2,6-dioxopiperidin-3-yl)-3-oxo-2,3-dihydro-1H-imidazo [1,5-a]indol-7-yl) methyl-(4-chloro-3-(2-(2-(methylamino)ethoxy)ethyl)phenyl) carbamate] | –
– | 135 nM | 96.3% | Cc1ccc(NC(=O)OCc2cccc3c2cc2n3C(=O)N(C3CCC(=O)NC3=O)C2)cc1Cl (centres unmarked) [Compound 13, 2-(2,6-dioxopiperidin-3-yl)-3-oxo-2,3-dihydro-1H-imidazo [1,5-a] indol-8-yl) methyl (3-chloro-4-methylphenyl) carbamate] | –
1000 to 10000 nM | – | – | O=C1CCC(N2Cc3nc4ccccc4n3C2=O)C(=O)N1 (centres unmarked) [Compound 14, 3-(1-oxo-1H-benzo [d]imidazo [1,5-a]imidazol-2 (3H)-yl) piperidine-2,6-dione] | –
